Measured values taken from ChEMBL document CHEMBL1201862, “PubChem BioAssay data set” (2004).
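Test compounds were applied to cells in 96-well plates for 48 hours at 5 doses. At the GI50, growth is halved.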 The source made the active and inactive calls. No stated cut-off is given here; in the data, active = GI50 up to about 1.1 µM and inactive = higher.

Experiments:
Assay in all cases: NCI-60 cell line screen, 48 h
SK-MEL-5 = test system: SK-MEL-5
SF-268 = test system: SF-268
HCT-116 = test system: HCT-116
UO-31 = test system: UO-31
HOP-62 = test system: HOP-62
KM12 = test system: KM12
MDA-MB-435 = test system: MDA-MB-435
IGROV-1 = test system: IGROV-1
SNB-19 = test system: SNB-19
NCI-H226 = test system: NCI-H226
DU-145 = test system: DU-145
A549 = test system: A549
T47D = test system: T47D
UACC-257 = test system: UACC-257
SN12C = test system: SN12C
HT-29 = test system: HT-29
PC-3 = test system: PC-3
CAKI-1 = test system: CAKI-1
SF-539 = test system: SF-539
UACC-62 = test system: UACC-62
TK-10 = test system: TK-10
A498 = test system: A498
MCF7 = test system: MCF7
M14 = test system: M14
EKVX = test system: EKVX
COLO 205 = test system: COLO 205
U-251 = test system: U-251
MDA-N = test system: MDA-N
OVCAR-4 = test system: OVCAR-4
SW-620 = test system: SW-620
HL-60 = test system: HL-60
SK-MEL-2 = test system: SK-MEL-2
CCRF-CEM = test system: CCRF-CEM
NCI-H460 = test system: NCI-H460
LOX IMVI = test system: LOX IMVI
SNB-75 = test system: SNB-75
BT-549 = test system: BT-549
NCI-H522 = test system: NCI-H522
SF-295 = test system: SF-295
Hs-578T = test system: Hs-578T
HOP-92 = test system: HOP-92
HCT-15 = test system: HCT-15
OVCAR-5 = test system: OVCAR-5
NCI/ADR-RES = test system: NCI/ADR-RES
MOLT-4 = test system: MOLT-4
OVCAR-8 = test system: OVCAR-8
786-0 = test system: 786-0
SK-OV-3 = test system: SK-OV-3
OVCAR-3 = test system: OVCAR-3
SK-MEL-28 = test system: SK-MEL-28
MDA-MB-231 = test system: MDA-MB-231
ACHN = test system: ACHN
NCI-H23 = test system: NCI-H23
Malme-3M = test system: Malme-3M
K562 = test system: K562
RXF 393 = test system: RXF 393
HCC 2998 = test system: HCC 2998
RPMI-8226 = test system: RPMI-8226

Measured: GI50

CC(=O)NC1C(OCc2ccccc2)OC(CO)C(O)C1OC(C)C(=O)NC(C(=O)NC(CCC(=O)NCCCNc1ccc([N+](=O)[O-])c2[nH]c3ccccc3c(=O)c12)C(N)=O)C(C)C (stereo not drawn)
> 100 µM: HCT-15
inactive: SK-MEL-5 > 100 µM | SF-268 > 100 µM | HCT-116 > 100 µM | UO-31 > 100 µM | HOP-62 > 100 µM | KM12 > 100 µM | MDA-MB-435 > 100 µM | IGROV-1 > 100 µM | SNB-19 > 100 µM | NCI-H226 > 100 µM | DU-145 > 100 µM | A549 > 100 µM | T47D > 100 µM | UACC-257 > 100 µM | SN12C > 100 µM | HT-29 > 100 µM | PC-3 > 100 µM | CAKI-1 > 100 µM | SF-539 > 100 µM | UACC-62 > 100 µM | TK-10 > 100 µM | A498 > 100 µM | MCF7 > 100 µM | M14 51.9 µM | EKVX > 100 µM | COLO 205 > 100 µM | U-251 > 100 µM | MDA-N > 100 µM | OVCAR-4 > 100 µM | SW-620 > 100 µM | HL-60 > 100 µM | SK-MEL-2 > 100 µM | CCRF-CEM > 100 µM | NCI-H460 > 100 µM | LOX IMVI > 100 µM | SNB-75 > 100 µM | BT-549 > 100 µM | NCI-H522 91.6 µM | SF-295 > 100 µM | Hs-578T > 100 µM | HOP-92 > 100 µM | OVCAR-5 59.6 µM | NCI/ADR-RES > 100 µM | MOLT-4 > 100 µM | OVCAR-8 > 100 µM | 786-0 > 100 µM | SK-OV-3 > 100 µM | OVCAR-3 > 100 µM | SK-MEL-28 > 100 µM | MDA-MB-231 40.6 µM | ACHN > 100 µM | NCI-H23 > 100 µM

CC(=O)O[C@H]1C[C@](C)(O)[C@@]23CC([C@@H](OC(=O)C(C)(C)O)[C@@H](OC(C)=O)C2(COC(=O)c2ccccc2)[C@H]1OC(C)=O)C(C)(C)O3 (stereo partly drawn)
inactive: SK-MEL-5 77.6 µM | SF-268 > 100 µM | HCT-116 > 100 µM | Malme-3M > 100 µM | UO-31 > 100 µM | HOP-62 > 100 µM | KM12 78.5 µM | MDA-MB-435 > 100 µM | IGROV-1 > 100 µM | SNB-19 > 100 µM | DU-145 > 100 µM | A549 47.8 µM | T47D > 100 µM | K562 50 µM | RXF 393 > 100 µM | HCC 2998 > 100 µM | UACC-257 > 100 µM | SN12C > 100 µM | HT-29 > 100 µM | PC-3 44 µM | CAKI-1 > 100 µM | SF-539 > 100 µM | UACC-62 > 100 µM | TK-10 > 100 µM | A498 > 100 µM | MCF7 50.9 µM | RPMI-8226 23.6 µM | M14 55.5 µM | EKVX > 100 µM | COLO 205 > 100 µM | U-251 33.4 µM | MDA-N > 100 µM | OVCAR-4 > 100 µM | SW-620 > 100 µM | SK-MEL-2 86.5 µM | CCRF-CEM 41.1 µM | NCI-H460 > 100 µM | LOX IMVI 61.5 µM | BT-549 > 100 µM | NCI-H522 67.1 µM | SF-295 84.3 µM | Hs-578T > 100 µM | HOP-92 60.3 µM | OVCAR-5 > 100 µM | NCI/ADR-RES > 100 µM | MOLT-4 31.4 µM | OVCAR-8 > 100 µM | 786-0 > 100 µM | SK-OV-3 > 100 µM | OVCAR-3 78.9 µM | SK-MEL-28 > 100 µM | MDA-MB-231 16.8 µM | ACHN > 100 µM | NCI-H23 > 100 µM
> 100 µM: HCT-15
